pKd: −log10 of the molar value. Calls of active or inactive are those of the source. No cut-off for these calls is given here.
Legend:
[1] = biological target: T1, Angiopoietin-1 receptor (Homo sapiens, UniProt Q02763); test: Binding affinity to human recombinant Tie2 by SPR assay
[2] = biological target: T1, Angiopoietin-1 receptor; test: Displacement of angiopoietin 1 from human recombinant Tie2 at 50 to 100 uM
[3] = biological target: T1, Angiopoietin-1 receptor; test: Displacement of angiopoietin 1 from human recombinant Tie2 at 25 to 100 uM
[4] = biological target: T1, Angiopoietin-1 receptor; test: Displacement of angiopoietin 2 from human recombinant Tie2 at 25 to 100 uM

T1 sequence (Q02763 whole entry): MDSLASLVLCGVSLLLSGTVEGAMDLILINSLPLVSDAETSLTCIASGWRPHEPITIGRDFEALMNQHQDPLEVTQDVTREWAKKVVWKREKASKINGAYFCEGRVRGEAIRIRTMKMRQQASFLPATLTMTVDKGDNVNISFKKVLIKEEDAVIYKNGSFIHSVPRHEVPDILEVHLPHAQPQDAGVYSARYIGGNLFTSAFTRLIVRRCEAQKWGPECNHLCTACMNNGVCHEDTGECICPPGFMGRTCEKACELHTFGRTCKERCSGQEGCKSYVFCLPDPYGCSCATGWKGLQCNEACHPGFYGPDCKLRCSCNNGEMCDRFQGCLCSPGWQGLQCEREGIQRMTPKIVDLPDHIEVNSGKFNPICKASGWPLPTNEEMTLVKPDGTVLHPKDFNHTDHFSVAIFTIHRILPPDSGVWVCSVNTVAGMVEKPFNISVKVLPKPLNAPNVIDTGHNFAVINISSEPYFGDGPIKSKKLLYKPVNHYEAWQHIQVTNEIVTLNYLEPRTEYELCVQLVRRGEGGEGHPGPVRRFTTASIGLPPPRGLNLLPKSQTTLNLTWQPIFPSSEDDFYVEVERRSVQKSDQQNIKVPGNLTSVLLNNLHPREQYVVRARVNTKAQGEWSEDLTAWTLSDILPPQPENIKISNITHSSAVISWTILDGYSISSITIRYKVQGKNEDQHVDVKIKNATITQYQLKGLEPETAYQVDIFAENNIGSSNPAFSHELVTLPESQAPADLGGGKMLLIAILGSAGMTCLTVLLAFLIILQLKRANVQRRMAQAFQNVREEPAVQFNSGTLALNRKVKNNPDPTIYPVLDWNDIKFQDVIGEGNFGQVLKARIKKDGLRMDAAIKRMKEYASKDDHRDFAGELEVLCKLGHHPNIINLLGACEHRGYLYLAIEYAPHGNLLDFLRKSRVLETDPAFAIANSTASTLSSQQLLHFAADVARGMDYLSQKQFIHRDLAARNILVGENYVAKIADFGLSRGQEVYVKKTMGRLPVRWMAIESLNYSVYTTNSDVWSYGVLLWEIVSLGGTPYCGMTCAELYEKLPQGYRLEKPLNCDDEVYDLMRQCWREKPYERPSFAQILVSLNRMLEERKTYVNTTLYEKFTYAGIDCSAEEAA

| SMILES | pKd [1] | Activity [2] | Activity [3] | Activity [4] |
| --- | --- | --- | --- | --- |
| CC1(C)S[C@@H]2[C@H](NC(=O)[C@H](N)c3ccccc3)C(=O)N2[C@H]1C(=O)O [AMPICILLIN] | 4.09 | Active |  |  |
| CN(C)C(=O)C(CCN1CCC(O)(c2ccc(Cl)cc2)CC1)(c1ccccc1)c1ccccc1 [LOPERAMIDE] | 5.23 |  | Active | Active |
| O=C(O)COCCN1CCN(C(c2ccccc2)c2ccc(Cl)cc2)CC1 (centres undefined) [CETIRIZINE] | 4.05 | Active |  |  |
| O=C(N[C@H](Cc1ccccc1F)C(=O)O)OCC1c2ccccc2-c2ccccc21 | 3.92 | Active |  |  |

Reference: ChEMBL document CHEMBL2010691, “Discovery of loperamide as an antagonist of angiopoietin1 and angiopoietin2 by virtual screening” (Bioorg Med Chem Lett, 2012)
